Measured values reported in ChEMBL document CHEMBL1135795, “Bacteriopurpurinimides: highly stable and potent photosensitizers for photodynamic therapy” (J Med Chem, 2002).

Assay: Partition coefficient (logP)
Type: physicochemical
Conditions: octanol/water

| logP | logP (read-out: logP) | SMILES |
| --- | --- | --- |
| 9.16 |  | CCCCCCN1C(=O)C2=C(C)c3cc4[nH]c(cc5[nH]c(cc6nc(c(c2n3)C1=O)[C@@H](CCC(=O)OCCC)[C@@H]6C)c(C)c5C(C)OCCC)[C@H](C)[C@H]4CC (stereo partly drawn) |
|  | 8.18 | CCCCCCN1C(=O)c2c3nc(cc4[nH]c(cc5nc(cc6[nH]c2c(c6C)C1=O)[C@H](CC)[C@H]5C)c(C(C)OC)c4C)[C@@H](C)[C@@H]3CCC(=O)OCCC (stereo partly drawn) |
| 11.19 |  | CCCCCCCOC(C)C1=C(C)c2cc3[nH]c(c4c5[nH]c(cc6nc(cc1n2)[C@H](C)[C@H]6CC)c(C)c5C(=O)N(CCCCCC)C4=O)[C@@H](CCC(=O)OCCC)[C@@H]3C (stereo partly drawn) |
